Entries after “also recorded” stand apart in the source; their conditions may differ.

These results are taken from patent US20170266164A1, “NEW METHODS AND USES” (Vicore Pharma AB, priority 2014, published 2017).

Series [1] concerns the target T1, AT2 receptor (Rattus norvegicus, UniProt P35351).
T1 construct: Stimulation of the AT2 receptor with C21 (as defined herein) ameliorates LV fibrosis; host or cells: rat heart (in vivo, endogenous receptor)
T1 sequence (P35351 1-363): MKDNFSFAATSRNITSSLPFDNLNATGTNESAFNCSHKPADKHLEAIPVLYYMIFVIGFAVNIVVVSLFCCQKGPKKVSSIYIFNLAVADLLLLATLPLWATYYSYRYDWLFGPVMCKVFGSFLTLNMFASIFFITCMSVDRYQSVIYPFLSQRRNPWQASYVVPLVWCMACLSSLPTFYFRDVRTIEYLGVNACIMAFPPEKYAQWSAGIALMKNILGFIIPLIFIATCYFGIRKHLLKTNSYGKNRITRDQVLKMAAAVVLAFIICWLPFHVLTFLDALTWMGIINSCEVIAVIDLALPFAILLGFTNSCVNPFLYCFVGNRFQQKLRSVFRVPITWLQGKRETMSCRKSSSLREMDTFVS
The settings on record: rat heart; regulation of TIMP1/MMP9 and TGF β1; cited from earlier work.

For series [2], the system named is Berk-SS mice. The experiment in a line: Urine concentrating ability (urine osmolality), glomerulopathy and survival in drug-treated sickle mice. The format is in vivo. From the text:
The Berk-AA mice are still relatively outbred and cannot be transplanted into BI/6 or Berk-SS mice without significant graft versus host disease. Knock-in SS (B6; 129-Hba^tm1(HBA)Tow Hbb^tm2(HBG1,HBB*)Tow/Hbb^tm3(HBG1,HBB)Tow/J) mice were kindly provided by Dr. Timothy Townes (University of Alabama, Birmingham). AT1R^−/− mice (B6.129P2Agtr1a^tm1Unc/J) were purchased from Jackson laboratories (Bar Harbor, Me.). AT2R^−/− mice were kindly provided by Dr. Tadashi Inagami (Vanderbilt University School of Medicine, Nashville, Tenn.). […]
Twenty-four hour urine was collected using metabolic cages. Urine volume was measured and then protein stabilization buffer (0.4 mM ophenanthroline, 1 mM p-hydroxymercuribenzoic acid and 0.12 mM pepstatin A and 0.5M EDTA, pH 8.0) was added to a portion of urine to stabilize Ang-11. […] Urine albumin level was measured using the mouse albumin ELISA kit (Bethyl Laboratories, Montgomery, Tex., catalog# E90-134). […] Urine osmolality was measured by vapor pressure osmometer, Vapro 5600, (Wescor Biomedical Systems, South Logan, Utah). Urine creatinine was measured using the creatinine parameter assay kit (R&D Systems, Minneapolis, Minn., catalog# KGE005). Plasma creatinine was measured using the creatinine assay kit (Abcam, Cambridge, Mass., catalog# ab65340) following the manufacturer's instructions. […]

Series [3] has as its system Berk-SS/WT chimeric mice. Kind of series: Urine albumin, urine osmolality and glomerular disease in drug-treated sickle hematopoietic chimeras. It is filed as in vivo, mouse. Particulars: for albuminuria: Berk-SS/WT chimeric mice vs untreated chimeras; for glomerular disease: hematopoietic SCD chimeras; for UCA (urine osmolality): sickle chimeric mice, after 8 hour water deprivation. From the text:
The Berk-AA mice are still relatively outbred and cannot be transplanted into BI/6 or Berk-SS mice without significant graft versus host disease. Knock-in SS (B6; 129-Hba^tm1(HBA)Tow Hbb^tm2(HBG1,HBB*)Tow/Hbb^tm3(HBG1,HBB)Tow/J) mice were kindly provided by Dr. Timothy Townes (University of Alabama, Birmingham). AT1R^-/- mice ([…]1Unc/J) were purchased from Jackson laboratories (Bar Harbor, Me.). AT2R^-/- mice were kindly provided by Dr. […] (Vanderbilt University School of Medicine, Nashville, Tenn.). Bone marrow from donor Berkeley sickle mice (or 057BI/6 control mice) were distributed 1:5 among the 057BI/6, AT1R^-/- and AT2R^-/- lethally irradiated (1175 cGy) recipient mice. All animals were maintained in the Cincinnati Children's Research Foundation's vivarium using protocols approved by the Institutional Animal Care and Use Committee. Twenty-four hour urine was collected using metabolic cages. Urine volume was measured and then protein stabilization buffer (0.4 mM ophenanthroline, 1 mM p-hydroxymercuribenzoic acid and 0.12 mM pepstatin A and 0.5M EDTA, pH 8.0) was added to a portion of urine to stabilize Ang-11. The rest of the urine was used for other analyses, including GFR, albumin, osmolality. Temporal assessments of urine albumin, creatinine and osmolality were made after an 8 hour water deprivation in SCD chimeric mice. […] Therefore, in Berk-SS mice (untransplanted/“straight SCD” native sickle mice) no water deprivation was performed prior to urine collection. Urine albumin level was measured using the mouse albumin ELISA kit (Bethyl Laboratories, Montgomery, Tex., catalog# E90-134). The ELISA was performed in a 96-well clear micro-plate (R&D systems, Minneapolis, Minn., catalog # DY990) as per manufacturer's instructions. Urine osmolality was measured by vapor pressure osmometer, Vapro 5600, (Wescor Biomedical Systems, South Logan, Utah). Urine creatinine was measured using the creatinine parameter assay kit (R&D Systems, Minneapolis, Minn., catalog# KGE005). Plasma creatinine was measured using the creatinine assay kit (Abcam, Cambridge, Mass., catalog# ab65340) following the manufacturer's instructions. Mice were given the following drug treatments: a) Captopril (West-Ward Pharmaceutical, West Eatontown, N.J., NDC number #0143-1173-01) 0.15 mg/ml in drinking water. b) Losartan (Teva Pharmaceuticals USA Inc, North Wales, Pa., -NDC number#00937366-98) 0.3-0.6 mg/ml in drinking water. c) C21 (Vicore Pharma AB, […], Sweden; Batch/Lot number # A11202910) 10 mg/kg/day in drinking water. Losartan and captopril water bottles were changed twice a week with fresh drugs and C21 was changed daily. In order to determine the role of the angiotensin receptors in SN, the inventors generated hematopoietic chimeric animals through bone marrow (BM) transplantation. First, they transplanted BM from Berk-SS mice into WT [057BI/6 (CD45.2+) or congenic CD45.1+BI/6] mice; mice that developed >95% sickle chimerism were followed for 6-9 months. Berk-SS/WT chimeras also developed hyperangiotensinemia followed by SN. Like in native (untransplanted) sickle mice, losartan or captopril ameliorated glomerular disease, but worsened UCA of hematopoietic SCD chimeras.

In series [4] the test system is RBC and platelets of Berk-SS/WT hematopoietic chimeras. The experiment in a line: ROS analysis (CM-H2DCFDA flow cytometry) of blood cells of drug-treated Berk-SS chimeras. The format is in vivo, mouse. As for the experimental part:
(§1) ROS was measured in WBC, RBC and platelets by mixing 0.5 μl of whole blood with 100 μl of FACS buffer (1×PBS, 0.5% bovine serum albumin), 0.1 μl of biotin anti-mouse Ter-119/erythroid Ly-76 antibody (BD Biosciences, San Jose, Calif., catalog#553672), 1 μl of Streptavidin APC-CyTM^7 (BD Biosciences, catalog#554063), 1 μl of PE anti-mouse CD45 antibody (BD Biosciences, cat#553081). […] All the tubes were incubated at room temperature for 20-30 minutes. The samples were washed with PBS at 200×g for 5 min and 100 μl of CM-H2DCFDA in 1:200 dilution was added to all sample tubes and the CM-H2DCFDA compensation tube while 100 μl of PBS was added to the rest of three compensation samples. The tubes were incubated for 30 minutes at 37° C. All the tubes were washed with 500 μl of PBS and centrifuged at 200×g for 5 min. After removing the supernatant the pellet was re-suspended in 200 μl of ice-cold PBS. Samples were stored on ice until analyzed on a BD FACSCantoTM II flow cytometer (BD Biosciences, San Jose, Calif.) by gating on the WBC, RBC and platelets. Mice were given the following drug treatments: a) Captopril (West-Ward Pharmaceutical, West Eatontown, N.J., NDC number #0143-1173-01) 0.15 mg/ml in drinking water. b) Losartan (Teva Pharmaceuticals USA Inc, North Wales, Pa., -NDC number#00937366-98) 0.3-0.6 mg/ml in drinking water. c) C21 (Vicore Pharma AB, […], Sweden; Batch/Lot number # A11202910) 10 mg/kg/day in drinking water. Losartan and captopril water bottles were changed twice a week with fresh drugs and C21 was changed daily.
(Flow cytometry measures light scatter and fluorescence of single cells or particles in a stream.)

Series [5] has as its system Angiotensin-II. The experiment in a line: Plasma and urine Angiotensin-II level (EIA) in drug-treated sickle mice. It is filed as in vivo, mouse. Particulars: compared to untreated Berk-SS controls. As for the experimental part: Urine and plasma Angiotensin-II level was measured by using the Angiotensin II EIA kit (Cayman Chemical Company, Ann Arbor, Mich., catalog# A05880) following the manufacturer's instructions.
Mice were given the following drug treatments: a) Captopril (West-Ward Pharmaceutical, West Eatontown, N.J., NDC number #0143-1173-01) 0.15 mg/ml in drinking water. b) Losartan (Teva Pharmaceuticals USA Inc, North Wales, Pa., -NDC number#00937366-98) 0.3-0.6 mg/ml in drinking water. c) C21 (Vicore Pharma AB, Haraldsgatan 5, S-413 14 Goteborg, Sweden; Batch/Lot number # A11202910) 10 mg/kg/day in drinking water. Losartan and captopril water bottles were changed twice a week with fresh drugs and C21 was changed daily.

Series [6] deals with erythrocytes and platelets of SCD mice. The experiment in a line: ROS analysis (CM-H2DCFDA flow cytometry) of blood cells of drug-treated SCD mice. The format is in vivo, mouse. As for the experimental part:
as §1

Regarding `CCCCOC(=O)NS(=O)(=O)c1sc(CC(C)C)cc1-c1ccc(Cn2ccnc2)cc1` [Compound C21, N-butyloxycarbonyl-3-(4-imidazol-1-ylmethylphenyl)-5-iso-butylthiophene-2-sulfonamide], the LV fibrosis entry in series [1] is recorded as “ameliorates”. In addition, in series [2] (sickle (SCD) mice, drug in drinking water), the “urine concentrating ability (UCA)” value is recorded as “improve”.

`C[C@H](CS)C(=O)N1CCC[C@H]1C(=O)O` [captopril]: in series [3], the albuminuria result is reported as “did not develop albuminuria”, the glomerular disease result is “ameliorated” and the “UCA (urine osmolality)” value was “worsened”. Moreover, in series [4], the “RBC (erythrocyte) ROS” value is reported as “significantly lowered” and the “platelet ROS” value is listed as “not platelets; also recorded: unchanged”. Moreover, in series [5], the “plasma AngII levels” value was “lower; also recorded: reduced” and the “urine AngII levels” value is “lower; also recorded: reduced”. Besides, in series [6], the “erythrocyte ROS” value was “significantly lowered; also recorded: specifically lowered” and the “platelet ROS” value is “unaffected”. In addition, the mortality result in series [2] (Berk-SS mice on drug from 4 weeks of age, from severe hyposthenuria and dehydration) is reported as “high mortality”.

For `CCCCc1nc(Cl)c(CO)n1Cc1ccc(-c2ccccc2-c2nn[nH]n2)cc1` [losartan], in series [3], the albuminuria entry is given as “did not develop albuminuria”, the glomerular disease result was “ameliorated” and the “UCA (urine osmolality)” value is “worsened”. For the same molecule, in series [4], the “RBC (erythrocyte) ROS” value is “significantly lowered” and the “platelet ROS” value is recorded as “not platelets; also recorded: unchanged”. For the same molecule, in series [5], the “plasma AngII levels” value was “lower; also recorded: reduced” and the “urine AngII levels” value is reported as “lower; also recorded: reduced”. Besides, in series [6], the “erythrocyte ROS” value is reported as “significantly lowered; also recorded: specifically lowered” and the “platelet ROS” value is recorded as “unaffected”.
